In the supplement of paper PMC12490022:
± gives the uncertainty stated by the source.

What follows are compounds tested on ozone (assay: apparent second-order rate constant for reaction with ozone (kapp,O3) (M-1 s-1); higher = faster oxidation by ozone). Details: pH 7; temperature: 22 C; OH radical scavenger: tBuOH 80 mM; phosphate 4 mM.
Experimental: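 Apparent second-order rate constants for reaction with ozone at pH 7 were determined by multicompound competition kinetics. Mixtures of targets and competitors (10 ug/L each) were ozonated in 4 mM phosphate buffer, pH 7, with 80 mM tBuOH as OH-radical scavenger, at 22 ± 1 °C. Peak-area abatement was measured by HPLC-HRMS/MS and k was derived from ln-ln slopes against competitors with known k (R2 > 0.9, >= 10 points, slope 0.1-10). Experiments were run in triplicate on 3 days; the value is the mean over valid competitors ± SD.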

SMILES | apparent second-order rate constant
CC[N+]1([O-])CCCC1CNC(=O)c1cc(S(=O)(=O)CC)c(N)cc1OC (centres undefined) [Amisulpride-N-oxide] | 1190 ± 100
C[N+](C)(CCOC(c1ccccc1)c1ccccc1)C1OC(C(=O)[O-])C(O)C(O)C1O (centres undefined) [Diphenhydramine-N-glucuronide] | 3.6 ± 0.4
CN1CCN2c3ncccc3Cc3ccccc3C2C1 (centres undefined) [Mirtazapine] | 957000 ± 81000
CCC(c1cccc(O)c1)C(C)CN(C)C (centres undefined) [Tapentadol] | 1.83e+06 ± 140000
O=C(O)Cc1ccccc1Nc1c(Cl)cccc1Cl [Diclofenac] | 830000 ± 71000
CCOC(=O)c1c(COCCN)nc(C)c(C(=O)OC)c1-c1ccccc1Cl [Dehydroamlodipine] | 55 ± 2.9
NC(=O)N1c2ccccc2C2OC2c2ccccc21 (centres undefined) [Carbamazepine-10,11-epoxide] | < 0.401
CCC1OC(=O)C(C)C(OC2CC(C)(OC)C(O)C(C)O2)C(C)C(OC2OC(C)CC(N(C)C)C2O)C(C)(O)CC(C)CN(C)C(C)C(O)C1(C)O (centres undefined) [Azithromycin] | 72000 ± 17000
CC[N+]1([O-])CCCC1CNC(=O)c1cc(S(N)(=O)=O)ccc1OC (centres undefined) [Sulpiride-N-oxide] | 41 ± 5
CC(C)(C(=O)O)c1ccc(C(O)CCCN2CCC(C(O)(c3ccccc3)c3ccccc3)CC2)cc1 (centres undefined) [Fexofenadine] | 2950 ± 260
COc1ccc(C2Sc3ccccc3N(CCN(C)C)C(=O)C2OC(C)=O)cc1 (centres undefined) [Diltiazem] | 735000 ± 67000
O=C(O)CCNC(=O)c1ccc(Cl)cc1 [3-[(4-Chlorobenzoyl)amino]propanoic acid] | 0.194 ± 0.008
Cc1c(NC=O)c(=O)n(-c2ccccc2)n1C [4-Formylaminoantipyrine] | 61000 ± 14000
C#CCN(C)C(C)Cc1ccccc1 (centres undefined) [Deprenyl] | 930000 ± 81000
CC(CN(C)C)CN1c2ccccc2CCc2cc(O)ccc21 (centres undefined) [2-Hydroxytrimipramine] | 8.7e+07 ± 1.9e+07
NS(=O)(=O)c1cc2c(cc1Cl)NCNS2(=O)=O [Hydrochlorothiazide] | 3000 ± 300
CC(C)NC(=O)NS(=O)(=O)c1cnccc1Nc1cccc(CO)c1 [Hydroxytorasemide] | 850 ± 70
O=c1n(CCCN2CCN(c3cccc(Cl)c3)CC2)nc2ccccn12 [Trazodone] | 1.31e+07 ± 1.6e+06
COC(=O)C1C(OC(=O)c2ccccc2)CC2CCC1[N+]2(C)[O-] (centres undefined) [Cocaine-N-oxide] | < 0.401
Clc1cccc(N2CCNCC2)c1 [1-(3-Chlorophenyl)piperazine] | 2.1e+06 ± 400000
CN(C)CCOC(c1ccccc1)c1ccccc1 [Diphenhydramine] | 5500 ± 140
Nc1ccc(S(=O)(=O)Nc2ccc(O)cn2)cc1 [5-Hydroxysulfapyridine] | 1.6e+08 ± 3e+07

SMILES | apparent second-order rate constant
CC[C@H]1OC(=O)[C@H](C)[C@@H](O[C@H]2C[C@@](C)(OC)[C@@H](O)[C@H](C)O2)[C@H](C)[C@@H](O[C@@H]2O[C@H](C)C[C@H]([N+](C)(C)[O-])[C@H]2O)[C@](C)(O)C[C@@H](C)CN(C)[C@H](C)[C@@H](O)[C@]1(C)O [Azithromycin-N-oxide] | 1150 ± 74
CC(CN1c2ccccc2CCc2ccccc21)C[N+](C)(C)[O-] (centres undefined) [Trimipramine-N-oxide] | 4.8e+06 ± 300000
COCCCOc1cc(CC(CC(N)C(O)CC(C(=O)NCC(C)(C)C(N)=O)C(C)C)C(C)C)ccc1OC (centres undefined) [Aliskiren] | 22000 ± 5000
CC(NC(C)(C)CO)C(=O)c1cccc(Cl)c1 (centres undefined) [Hydroxybupropion] | 3630 ± 310
O=C(c1ccccc1)c1ccc(Cl)cc1 [4-Chlorobenzophenone] | 0.58 ± 0.04
CC(=O)Nc1ccc(OS(=O)(=O)O)cc1 [Paracetamol-sulfate] | 3.3 ± 0.3
COC(=O)C(c1ccccc1Cl)N1CCc2sccc2C1 (centres undefined) [Clopidogrel] | 335000 ± 28000
CC(C(=O)O)c1ccc2cc(O)ccc2c1 (centres undefined) [O-Desmethylnaproxen] | 6.6e+06 ± 500000
CC(C)NCC(O)COc1cccc2ccccc12 (centres undefined) [Propanolol] | 174000 ± 16000
CNC(C)C(O)c1ccccc1 (centres undefined) [Ephedrine] | 1720 ± 150
COc1cc(NS(=O)(=O)c2ccc(N)cc2)nc(OC)n1 [Sulfadimethoxine] | 1.53e+06 ± 100000
O=C(c1ccccc1)c1ccccc1 [Benzophenone] | < 0.401
CNC(=C[N+](=O)[O-])NCCSCc1ccc(CN(C)C)o1 [Ranitidine] | 6.4e+06 ± 500000
CN(C)CC(c1ccc(O)cc1)C1(O)CCCCC1 (centres undefined) [O-Desmethylvenlafaxine] | 2.09e+06 ± 170000
CCCc1nc2c(C)cc(-c3nc4ccccc4n3C)cc2n1Cc1ccc(-c2ccccc2C(=O)OC2OC(C(=O)O)C(O)C(O)C2O)cc1 (centres undefined) [Telmisartan-O-acyl-glucuronide] | 111 ± 5
CC1CC2C3CCC4=CC(=O)C=CC4(C)C3(F)C(O)CC2(C)C1(O)C(=O)CO (centres undefined) [Betamethasone] | 35.8 ± 1.8
CC(=O)Nc1ccc(S(=O)(=O)Nc2ccccn2)cc1 [N4-Acetylsulfapyridine] | 947 ± 280
Oc1ccc(C(c2ccc(O)cc2)c2ccccn2)cc1 [Desacetylbisacodyl] | 2.25e+06 ± 220000
CC(=O)Nc1c(I)c(C(=O)NCC(O)CO)c(I)c(C(=O)N(C)CC(O)CO)c1I (centres undefined) [Desmethoxyiopromide] | 1.74 ± 0.19
O=C1Nc2c(CO)ccnc2N(C2CC2)c2ncccc21 [12-Hydroxynevirapine] | 392 ± 21
C/C(=C\Cc1c(O)c(C)c2c(c1O)C(=O)OC2)CCC(=O)O [6-O-Desmethyl mycophenolic acid] | 9.2e+07 ± 2e+07
C[N+](C)([O-])CCC(c1ccccc1)c1ccccn1 (centres undefined) [Pheniramine-N-oxide] | 2.4 ± 0.3

SMILES | apparent second-order rate constant
CNCCC(Oc1ccc(C(F)(F)F)cc1)c1ccccc1 (centres undefined) [Fluoxetine] | 1720 ± 50
CC(N)Cc1ccc(O)cc1 (centres undefined) [4-Hydroxyamphetamine] | 2.48e+06 ± 220000
CN1CCC23CCCCC2C1Cc1ccc(O)cc13 (centres undefined) [Dextrorphan] | 1.87e+06 ± 170000
CC(NC(C)(C)C)C(O)c1cccc(Cl)c1 (centres undefined) [Dihydrobupropion] | 162 ± 8.9
CNCCCC(C#N)(c1ccc(OC)c(OC)c1)C(C)C (centres undefined) | 2300 ± 200
Cc1ccc(-c2nc3ccc(C)cn3c2CC(=O)N(C)C)cc1 [Zolpidem] | 1.28e+07 ± 900000
CC1(C)SC2C(NC(=O)C(N)c3ccc(O)cc3)C(=O)N2C1C(=O)O (centres undefined) [Amoxicillin] | 2.2e+06 ± 190000
COc1ccc(C2CC(=O)c3c(O)cc(O)cc3O2)cc1O (centres undefined) [Hesperitin] | 3.3e+07 ± 7e+06
CCC1(c2ccccc2)C(=O)NCNC1=O [Primidone] | 2.4 ± 0.3
CCN1CCCC1CNC(=O)c1cc(S(N)(=O)=O)ccc1OC (centres undefined) [Sulpiride] | 1.75e+06 ± 70000
COc1cc(OC)nc(NS(=O)(=O)c2ccc(NC(C)=O)cc2)n1 [N4-Acetylsulfadimethoxine] | 337000 ± 28000
COc1ccc2cc(C(C)C(=O)O)ccc2c1 (centres undefined) [Naproxen] | 500000 ± 46000
Nc1[nH]c(=O)ncc1F [5-Fluorocytosine] | 24300 ± 2500
CN1CCN2c3ncccc3Cc3ccccc3C2C1=O (centres undefined) [1-Oxo-mirtazapine] | 64000 ± 14000
Nc1ccc(S(=O)(=O)Nc2nccs2)cc1 [Sulfathiazole] | 9.8e+06 ± 700000
CC(=O)Nc1ccc(S(=O)(=O)Nc2ncccn2)cc1 [N4-Acetylsulfadiazine] | 89 ± 4.9
COc1ccc(C(C[N+](C)(C)[O-])C2(O)CCCCC2)cc1 (centres undefined) [Venlafaxine-N-oxide] | 168 ± 8.7
O=C(O)c1ccccc1Nc1c(Cl)cccc1Cl [Diclofenac carboxylic acid] | 815000 ± 110000
CC=C1N(C)C(C)CC1(c1ccccc1)c1ccccc1 (centres undefined) [2-Ethylidene-1,5-dimethyl-3,3-diphenylpyrrolidine (EDDP)] | 99000 ± 18000
O=C1CC(c2ccc(O)c(O)c2)Oc2cc(O)cc(O)c21 (centres undefined) [Eriodictyol] | 1.8e+07 ± 4e+06
